# Where “and” joins values, the source holds several entries; their conditions need not be identical. Equal entries are not always repeated.
# System: anthelmintic/nematicide-resistant C. elegans mutant strains
# Experiment: microbe, parasite or virus in culture
# Details: Caenorhabditis elegans, read-out: C. elegans Development & Viability LC50, acr-23(ok2804)
# Source text: In addition to the Caenorhabditis elegans wild-type N2 strain, this work included the following C. elegans strains: CB1003 (kynu-1(e1003) X); anthelmintic-resistant strains—CB3474 (ben-1(e1880) III), CB193 (unc-29(e193) I), HY496 (bre-1(ye4) IV), RB2119 (acr-23(ok2804) V), JD608 (avr-14(ad1302) I; avr-15(ad1051) V; glc-1 (pk54) V), NM1968 (slo-1(js379) V), RP2635 (mev-1(tr355) III); benzimidazole-resistant CRISPR strains—ECA882 (ben-1(ean64) III), ECA917 (ben-1(ean98) III), ECA1075 (ben-1(ean143) III), ECA1080 (ben-1(ean148) III). This work also featured several additional free-living nematode strains: C. briggsae strain AF16, P. pacificus strain PS312, and P. hermaphrodita strain B178. The four CRISPR-generated benzimidazole-resistant C. elegans mutants were generously provided by Prof. Erik Andersen (Johns Hopkins University); PS312 and B178 were generously provided by Prof. Peter Roy (University of Toronto); all other strains were obtained from the Caenorhabditis Genetics Center (CGC, University of Minnesota). All strains were cultured and propagated at 20 °C on NGM (nematode growth medium) agar plates seeded with E. coli OP50 (Stiernagle, 2006)[56].
# Liquid development and viability assays were adapted from a previously established chemical screening protocol (Burns et al.)[24]. In brief, a saturated culture of E. coli HB101 was concentrated 2-fold in liquid NGM and 40 μL of this suspension was distributed to each well of a 96-well flat-bottom culture plate. 0.5 μL chemical solution (or DMSO alone) was added to each well (1% DMSO v/v) using either a multi-channel pipette or a pinning tool (V&P Scientific). L1 worms synchronized from an embryo preparation performed the day prior were diluted to a concentration of ~2 worms/μL in M9 buffer; 10 μL worm suspension was then added to each well. Culture plates were sealed with parafilm and placed in a plastic container lined with wet paper towels to prevent evaporation. Containers were then incubated for 6 days at 20 °C with shaking at 165 rpm. Following incubation, 300 μL M9 was added to each well to decrease the turbidity of the HB101-NGM suspension. Single images of each microplate well were then taken on a Nikon Ti Eclipse inverted microscope (Nikon NIS Elements AR). Images were processed using Python scripts to isolate worm-associated pixels from background. Scores of worm development and viability were determined as the sum of worm-associated pixels in each well. Development/viability scores for each well were divided by the development /viability scores for the corresponding DMSO controls, resulting in a relative viability value for each chemical. At least three biological replicates were performed for each dose-response experiment; relative viability values were averaged across replicates.
# Supplementary Table 2. Sensitivity of anthelmintic/nematicide-resistant strains to Class A, B, and C
# benzimidazole complex I inhibitors.
# LC50s were estimated from fitted dose-
# response curves; all dose response data are the mean of at least three biological replicates.
# Supplementary Table 2. Davie et al.
row,Compound,LC50 [µM]
1,Cc1nc2ccccc2n1Cc1ccc(Cl)cc1 [STK697993],34.9
2,"C=C(C)[C@H]1Cc2c(ccc3c2O[C@@H]2COc4cc(OC)c(OC)cc4[C@@H]2C3=O)O1 [Rotenone, reference compound]",2.1
3,CC(C)Cc1ccc(C(C)c2nc3ccccc3n2C)cc1 (stereo not drawn) [NPD8790],> 1000
4,Cc1ccccc1OCCCCn1cnc2ccccc21 [Compound 7732524],50.2

# Same assay, conditions: Caenorhabditis elegans, read-out: C. elegans Development & Viability LC50, avr-14(ad1302); avr-15(ad1051); glc-1(pk54)
row,Compound,LC50 [µM]
1,Cc1nc2ccccc2n1Cc1ccc(Cl)cc1 [STK697993],28.3
2,"C=C(C)[C@H]1Cc2c(ccc3c2O[C@@H]2COc4cc(OC)c(OC)cc4[C@@H]2C3=O)O1 [Rotenone, reference compound]",1.4
3,CC(C)Cc1ccc(C(C)c2nc3ccccc3n2C)cc1 (stereo not drawn) [NPD8790],> 1000
4,Cc1ccccc1OCCCCn1cnc2ccccc21 [Compound 7732524],46.5

# Same assay, conditions: Caenorhabditis elegans, read-out: C. elegans Development & Viability LC50, ben-1(e1880)
row,Compound,LC50 [µM]
1,Cc1nc2ccccc2n1Cc1ccc(Cl)cc1 [STK697993],38.6
2,"C=C(C)[C@H]1Cc2c(ccc3c2O[C@@H]2COc4cc(OC)c(OC)cc4[C@@H]2C3=O)O1 [Rotenone, reference compound]",3.4
3,CC(C)Cc1ccc(C(C)c2nc3ccccc3n2C)cc1 (stereo not drawn) [NPD8790],> 1000
4,Cc1ccccc1OCCCCn1cnc2ccccc21 [Compound 7732524],50

# Same assay, conditions: Caenorhabditis elegans, read-out: C. elegans Development & Viability LC50, bre-1(ye4)
row,Compound,LC50 [µM]
1,Cc1nc2ccccc2n1Cc1ccc(Cl)cc1 [STK697993],31.1
2,"C=C(C)[C@H]1Cc2c(ccc3c2O[C@@H]2COc4cc(OC)c(OC)cc4[C@@H]2C3=O)O1 [Rotenone, reference compound]",3.5
3,CC(C)Cc1ccc(C(C)c2nc3ccccc3n2C)cc1 (stereo not drawn) [NPD8790],> 1000
4,Cc1ccccc1OCCCCn1cnc2ccccc21 [Compound 7732524],41.2

# Same assay, conditions: Caenorhabditis elegans, read-out: C. elegans Development & Viability LC50, mev-1(tr355)
row,Compound,LC50 [µM]
1,Cc1nc2ccccc2n1Cc1ccc(Cl)cc1 [STK697993],28.5
2,"C=C(C)[C@H]1Cc2c(ccc3c2O[C@@H]2COc4cc(OC)c(OC)cc4[C@@H]2C3=O)O1 [Rotenone, reference compound]",3.2
3,CC(C)Cc1ccc(C(C)c2nc3ccccc3n2C)cc1 (stereo not drawn) [NPD8790],> 1000
4,Cc1ccccc1OCCCCn1cnc2ccccc21 [Compound 7732524],42.9

# Same assay, conditions: Caenorhabditis elegans, read-out: C. elegans Development & Viability LC50, slo-1(js379)
row,Compound,LC50 [µM]
1,Cc1nc2ccccc2n1Cc1ccc(Cl)cc1 [STK697993],16.1
2,"C=C(C)[C@H]1Cc2c(ccc3c2O[C@@H]2COc4cc(OC)c(OC)cc4[C@@H]2C3=O)O1 [Rotenone, reference compound]",1
3,CC(C)Cc1ccc(C(C)c2nc3ccccc3n2C)cc1 (stereo not drawn) [NPD8790],177
4,Cc1ccccc1OCCCCn1cnc2ccccc21 [Compound 7732524],31.4

# Same assay, conditions: Caenorhabditis elegans, read-out: C. elegans Development & Viability LC50, unc-29(e193)
row,Compound,LC50 [µM]
1,Cc1nc2ccccc2n1Cc1ccc(Cl)cc1 [STK697993],22.9
2,"C=C(C)[C@H]1Cc2c(ccc3c2O[C@@H]2COc4cc(OC)c(OC)cc4[C@@H]2C3=O)O1 [Rotenone, reference compound]",1.5
3,CC(C)Cc1ccc(C(C)c2nc3ccccc3n2C)cc1 (stereo not drawn) [NPD8790],> 1000
4,Cc1ccccc1OCCCCn1cnc2ccccc21 [Compound 7732524],37.8

# Same assay, conditions: mev-1 (tr355); concentration step 1 of 13 (c108)
row,Compound,dose response data
1,Cc1nc2ccccc2n1Cc1ccc(Cl)cc1 [STK697993],0.989 and 1.000
2,Cc1ccccc1OCCCCn1cnc2ccccc21 [Compound 7732524],0.998 and 1.000

# Same assay, conditions: mev-1 (tr355); concentration step 3 of 13 (c110)
row,Compound,dose response data
1,Cc1ccccc1OCCCCn1cnc2ccccc21 [Compound 7732524],0.989 and 1.000

# Same assay, conditions: mev-1 (tr355); concentration step 4 of 13 (c111)
row,Compound,dose response data
1,Cc1nc2ccccc2n1Cc1ccc(Cl)cc1 [STK697993],0.994 and 1.000
2,Cc1ccccc1OCCCCn1cnc2ccccc21 [Compound 7732524],1.000 and 0.845

# Same assay, conditions: mev-1 (tr355); concentration step 5 of 13 (c112)
row,Compound,dose response data
1,Cc1ccccc1OCCCCn1cnc2ccccc21 [Compound 7732524],1.000 and 0.955

# Same assay, conditions: mev-1 (tr355); concentration step 6 of 13 (c113)
row,Compound,dose response data
1,Cc1ccccc1OCCCCn1cnc2ccccc21 [Compound 7732524],1.000 and 0.835

# Same assay, conditions: mev-1 (tr355); concentration step 7 of 13 (c114)
row,Compound,dose response data
1,Cc1ccccc1OCCCCn1cnc2ccccc21 [Compound 7732524],1.000

# Same assay, conditions: mev-1 (tr355); concentration step 8 of 13 (c115)
row,Compound,dose response data
1,Cc1ccccc1OCCCCn1cnc2ccccc21 [Compound 7732524],1.000 and 0.746

# System: L1 wild-type C. elegans
# Experiment: whole plant or invertebrate
# Details: Caenorhabditis elegans, 15 h, read-out: C. elegans KCN Survival Assay LC50
row,Compound,LC50 [µM]
1,Cc1nc2ccccc2n1Cc1ccc(Cl)cc1 [STK697993],8.2
2,"C=C(C)[C@H]1Cc2c(ccc3c2O[C@@H]2COc4cc(OC)c(OC)cc4[C@@H]2C3=O)O1 [Rotenone, reference compound]",0.8
3,COc1cc2c(cc1OC)C(/C=C/c1ccc(N(C)C)cc1)=NCC2 [NPD6303],32.2
4,COc1cc2c(cc1OC)C(C(C)c1ccc(CC(C)C)cc1)=NCC2 (stereo not drawn) [NPD10504],15.6
5,CC(C)Cc1ccc(C(C)c2nc3ccccc3n2C)cc1 (stereo not drawn) [NPD8790],14.3
6,Cc1ccccc1OCCCCn1cnc2ccccc21 [Compound 7732524],6.4
7,"CC(C)(C)c1ccc(CCOc2ncnc3ccccc23)cc1 [Fenazaquin, reference compound]",0.5
8,Cc1cc(O)c2c(c1)O[C@@]1(C)CC[C@H]3C(C)(C)CCC[C@]34CO[C@@H]2[C@H]41 [Siccanin],6.3

# Reference: paper PMC11079024, “Identification of a family of species-selective complex I inhibitors as potential anthelmintics” (Nature Communications, 2024)
